Test results as given in US5627173A, “Phosphonoacetic acid derivatives and their use for treating degenerative joint disorders” (Hoechst Aktiengesellschaft, priority 1995, dated 1997).
≈ marks a conversion by molar mass, not a printed value.

Columns and labels:
[1] = tested on: isolated guinea pig trachea; assay: Antagonism of calcium ionophore A23187-induced contraction of the isolated guinea pig trachea; details: Cavia porcellus; agonist Ca ionophore A23187; read-out: Anticontractile effect (trachea), concentration range needed to bring about a dilatation corresponding to the ED50 range
From the text: (§1) The compounds according to the invention are used as antagonists of the contraction of various parts of organs, in this case the isolated guinea pig trachea. The agonists used were KCl, PGF2a, calcium ionophore A23187 and substance P:
c) Calcium ionophore A23187 (Calbiochem, Bad Soden) brings about, due to increased uptake of calcium ions, an activation of all calcium-dependent signal cascades in the cell.
(§2) The guinea pigs were sacrificed by lethal anesthesia with laughing gas. The trachea was dissected out over its entire length and cut into 15 individual cartilage rings. In each case five rings were connected together to form a chain and fixed in an organ bath under a preload of 3 g. After an equilibration period of 45 minutes, a contraction was induced with the agonist. Cumulative addition of the antagonist (test product) took place at the plateau 5 of the maximum. Evaluation took place as % change in strength based on the maximum contraction. The test was carried out at 37° C., and the physiological nutrient solution used was a modified Krebs-Henseleit solution through which 95% by volume 02 and 5% by volume CO2 was bubbled.
(§3) Test animals: Albino guinea pigs (102), weight: 200 to 300 g, male or female
(§4) Composition of the organ bath (nutrient solution):
(§5) Vehicle: Double-distilled water, ethanol or isopropanol; Administration: into the organ bath Number of administrations: cumulative, single doses for SP

[2] = tested on: isolated guinea pig trachea; assay: Antagonism of substance P-induced contraction of the isolated guinea pig trachea; details: Cavia porcellus; agonist substance P; read-out: Anticontractile effect (trachea), concentration range needed to bring about a dilatation corresponding to the ED50 range
From the text: as §1
Antagonism is possible on the one hand by specific receptor antagonists, and on the other hand by inhibition of the downstream signal pathway.
as §2, §3, §4, §5

[3] = tested on: isolated guinea pig trachea; assay: Antagonism of KCl-induced contraction of the isolated guinea pig trachea; details: Cavia porcellus; agonist KCl; read-out: Anticontractile effect (trachea), concentration range needed to bring about a dilatation corresponding to the ED50 range
From the text: as §1
Products with a non-specific effect generally show a spasmolytic effect with respect to all agonists. KCI is representative here of non-specific, receptor-independent contraction because KCl-induced contractions are produced predominantly physically, that is to say by increasing the K+ concentration in the outside medium, and change the resting potential of the cell.
as §2, §3, §4, §5

[4] = tested on: isolated guinea pig trachea; assay: Antagonism of PGF2α-induced contraction of the isolated guinea pig trachea; details: Cavia porcellus; agonist PGF2α; read-out: Anticontractile effect (trachea), concentration range needed to bring about a dilatation corresponding to the ED50 range
From the text: as §1
Inhibition of contractions induced by this cyclooxygenase product is possible only by competitive antagonism at the receptor or of the downstream signal pathway.
as §2, §3, §4, §5

[5] = tested on: isolated strips of guinea pig lung; assay: Antagonism of LTD4-induced contraction of isolated strips of guinea pig lung; details: Cavia porcellus; agonist LTD4; read-out: Anticontractile effect (lung), concentration range corresponding to the IC50 value
From the text: (§6) The test was based on the same principle as the test indicated in Pharmacological Test 5; however, strips of lung were used in this case.
(§7) The guinea pig was sacrificed under anesthesia with laughing gas. The entire lung tract was cut out starting from the trachea. The lobes of the lungs were cut in circular fashion to produce strips about 3 mm wide. The strips of the upper lobes were divided up in order to obtain a total of six strips of approximately equal size. The strips were suspended in the organ baths under a preload of 4 g. Modified Krebs-Henseleit solutions were used as nutrient solution. When platelet activating factor (PAF) was used as agonist, the composition of this solution corresponded to that for the agonist SP in Pharmacological Test 5; a Krebs-Henseleit solution as in the case of the agonist KCI (Pharm. Test 5) was used for the agonist LTD4. 95% by volume 02, 5% by volume CO2 was bubbled through the bath, and the bath temperature was 37° C. The test is carried out by a therapeutic/cumulative method with dose levels of 1, 3, 6 and 10 μg/ml.
(§8) The test animals, organ bath, vehicle, mode of administration corresponded to that stated for Pharmacological Test 5.

[6] = tested on: phosphodiesterase III; assay: Inhibition of phosphodiesterase III activity; format: biochemical; details: 100 μM
Experimental: The test was carried out with the phosphodiesterase of Boehringer Mannheim (Mannheim, Germany), Order no. 108 243 by the method of T. SAEKI, I. SAITO, Biochem. Pharm. 46, No. 5, […], pages 833-839.

[7] = tested on: isolated strips of guinea pig lung; assay: Antagonism of PAF-induced contraction of isolated strips of guinea pig lung; details: Cavia porcellus; agonist PAF; read-out: Anticontractile effect (lung), concentration range corresponding to the IC50 value
From the text: as §6, §7, §8

[8] = tested on: RAW 264.7 cells; assay: Release of tumor necrosis factor α from RAW 264.7 cells; format: cell-based; details: Mus musculus, RAW264.7, LPS, read-out: inhibition of TNFα formation compared with an untreated control
Experimental: (§9) Culture medium: DMEM+10% FCS+penicillin/streptomycin (50 U/SO μg/ml)
(§10) Culture conditions: 37° C., 10% CO2
(§11) Culture dishes: 24-well dishes
(§12) In each case 10^6 cells/ml/well were incubated for 24 hours (h)
(§13) Addition of 10 μl of test substance (=100 μM in the test, dissolved in double-distilled water)
Addition of 50 μl of lipopolysaccharide (LPS) from E. coli (=10 pg/ml in the test, dissolved in culture medium) […]
Tumor necrosis factor α was determined using a Factortest X mouse TNFα ELISA kit from Genzyme (R(1sselsheim, Geromany), Order no. 80-2802-00.

[9] = tested on: RAW 264.7 cells; assay: Release of substance P from RAW 264.7 cells; format: cell-based; details: Mus musculus, RAW264.7, stimulated by 50 ng of LPS for 4 hours, read-out: inhibition of substance P production
Experimental: as §9, §10, §11, §12, §13
Release of substance P took place as described for TNFα, but the cells were stimulated by 50 ng of LPS for 4 hours. Substance P was determined using a substance P RIA test kit from Peninsula Laboratories (Belmont, USA) Test no. RIK-7451.

[10] = tested on: Wistar-Lewis rats; assay: Adjuvant arthritis; format: in vivo; details: 12.6 mg/kg intraperitoneal, twice a day for 18 days
Experimental: The investigations were carried out as described in EP 50 42 740.

[11] = tested on: matrix metalloproteases; assay: Inhibition of matrix metalloproteases (MMP from rabbit synoviocytes HIG-82, fluorescent substrate); format: biochemical
Experimental: After confluent cell growth, the MMP expression was induced in the serum-free 3F12 HAM medium by adding 0.3 μmol/l phorbol 12-myristate 13-acetate. The supernatant was removed after incubating at 37° C. for 20 hours.
Activation of the MMP: The supernatant was activated with trypsin (5 μg/ml). After 15 minutes at 37° C., the activation was stopped by adding 1 mmol/l phenylmethylsulfonyl fluoride (PMSF) and incubating for a further 10 minutes. The total volume of the mixture was 210 μl.
The test substance was added in the stated concentration (see table). […] The reaction was stopped after 30 minutes by adding 10 mmol/l EDTA. The total-volume of the mixture was 320 μl . The parameters measured were the fluorescence intensities at […]. In order to take account of the possible intrinsic fluorescence of the test substances, the fluorescence intensities from parallel measurements without substrate were subtracted from the measurements with substrate. All the steps took place at 20° C.

[12] = tested on: interleukin-1β; assay: Inhibition of release of interleukin-1β from human mononuclear cells; format: cell-based; details: 10 .parallel.mol/l (so in the source), IL-1β, LPS-stimulated, 20 to 22 hours
Experimental: Obtaining mononuclear cells from human blood: 10 ml of human blood stabilized with 1 ml of 3.8 percent sodium citrate solution were diluted with 10 ml of PM16 (Serra, Heidelberg), and an underlayer of 15 ml of Lymphoprep (Dr. Molter GmbH, Heidelberg) was introduced. The samples were centrifuged at 400 x g (Minifuge 2 Heraeus, Osterode) at room temperature for 40 minutes. The mononuclear cells were visible as a white ring at the Lymphoprep/plasma boundary. This ring was cautiously removed with a syringe, diluted with the same volume of PM16 and centrifuged at 400 x g for 10 minutes. The precipitate was washed with ^~ 10 ml of RPMI1640 (+300 mg/I L-glutamine, Gibco, Eggenstein). After the cells had been suspended in ^~ 1 ml of RPMI1640 (+300 mg/I L-glutamine, +25 mM HEPES, +100 μg/ml streptomycin, +100 μg/ml penicillin), the cell density was determined with a JT Coulter Counter (Coulter Diagnostics) and adjusted to 5.10^6 /ml. 90% of the resulting cells were lymphocytes and 10% were monocytes.
Inhibition of release of interleukin-1β: 230 μl of mononuclear cells were incubated with 10 μl of test substance (10 μM in dimethyl sulfoxide (DMSO)/water=1/10) and 10 μl of a lipopolysaccharide solution (500 μg dissolved in 1 ml of DMSO and diluted 1/10 with water before starting the test, from Salmonella abortus equi, (Sigma, Deisenhofen) at 37° C., 5% CO2 for 20 to 22 hours. The samples were cooled to 0° C. in an ice bath and centrifuged in a Sigma centrifuge (2 minutes; 2000 revolutions per minute (rpm)). Aliquots of the supernatant were determined using a commercially available ELISA 5(Biermann, Bad Nauheim).
All active substances were tested at a concentration of 10 .parallel.mol/l. IL-1β release was tested in each case.

[13] = tested on: rat liver microsomes; assay: Inhibition of microsomal lipid peroxidation; format: biochemical; details: 37° C., 10 minutes
Experimental: Obtaining rat liver microsomes: All steps were carried out at 0° C. The liver from a rat was thoroughly rinsed with 0.9% NaCl solution to remove all the hemoglobin. The liver wascut into pieces and then treated in a Potter in 10 mM Tris/HCl pH 7.4; 250 mM sucrose (10 ml of buffer/g of liver). The first centrifugation was at 600 x g for 55 minutes to remove cell detritus. The supernatant was then centrifuged at 12000 x g for 10 minutes and was adjusted with solid CaCI2 (117.6 mg/100 ml) to a concentration of 8 mM. A microsome pellet was obtained by centrifugation at 25000 x g (15 minutes). This pellet was ohomogenized in the same volume of buffer (10 mM Tris/BCI pH 7.4; 150 mMKCl) and again centrifuged at 25000 x g for 15 minutes.
Peroxidation by rat liver microsomes: A test mixture consisted of 20 μl of microsomes (100 mg/ml), see above, dissolved in a buffer (250 mM Tris/HCI pB 6.6; 750 mMKCl), 10 iL1 of 50 mM MgCI2, 10 μl of 200 mM isocitric acid, 10 μl of 4 mM NADP (3.028 mg/ml in water), 10 μl of 25 mM niacinamide, 10 μl of isocitrate dehydrogenase (Boehringer, diluted 1:100) and 20 μl of water or test substance. The reaction was started with 10 μl of 0.25 mM FeSO4. […] The malonaldehyde which was formed was converted by adding 500 μl of 0.67 percent thiobarbituric acid and incubating at 90° C. for 30 min into a pink-colored compound which was measured in a photometer at 532 nm. […]

Row | SMILES | EC50 [1] | EC50 [2] | EC50 [3] | EC50 [4] | IC50 [5] | inhibition of enzyme activity (phosphodiesterase III) [6] | IC50 [7] | inhibition at 100 µM ([8]; incubation for 2.5 hours) | inhibition at 100 µM [9] | inhibition of the increase in the paw volume compared with an untreated control group [10] | inhibition at 100 µM ([8]; incubation for 4 h) | Inhibition of MMP, Inhibition (%) ([11]; 10 μM) | Inhibition of MMP, Inhibition (%) ([11]; 30 μM) | Inhibition of MMP, Inhibition (%) ([11]; 100 μM) | inhibition at 10 µM [12] | IC50 [13]
1 | CCOP(=O)(OCC)/C(C#N)=C\c1ccc(OC)c(OC)c1 [Compound 37, Z- and E-2-(diethoxyphosphinyl)-3-(3,4-dimethoxyphenyl) acrylonitrile] | ~1 µg/mL (≈ 3.07 µM) | ~3 µg/mL (≈ 9.22 µM) | ~10 µg/mL (≈ 30.7 µM) | ~3 µg/mL (≈ 9.22 µM) | 0.1 to 0.3 µg/mL (≈ 0.307 to 0.922 µM) | 39% | 1 to 3 µg/mL (≈ 3.07 to 9.22 µM) | 55% | 100% | – | – | – | – | – | – | –
2 | CCOP(=O)(OCC)/C(C#N)=C/c1ccc(OC)c(OC)c1 [Compound 38, Z- and E-2-(diethoxyphosphinyl)-3-(3,4-dimethoxyphenyl) acrylonitrile] | ~3 µg/mL (≈ 9.22 µM) | 3 to 10 µg/mL (≈ 9.22 to 30.7 µM) | > 10 µg/mL | 1 to 3 µg/mL (≈ 3.07 to 9.22 µM) | ~1 µg/mL (≈ 3.07 µM) | – | < 0.1 µg/mL | – | 100% | 98% | 16% | – | – | – | – | –
3 | CCOC(=O)C(=Cc1ccc(O)c(O)c1)P(=O)(OCC)OCC [Compound 47, Ethyl 2-(diethoxyphosphinyl)-3-(3,4-dihydroxyphenyl) propenoate] | – | – | – | – | – | – | – | – | – | – | – | 13% | 24% | 55% | 80% | 2100 nM
